What was measured:
[1] = biological target: PIK3CD (Human) (UniProt O00329); test: Assessment of PIK3CD Kinase Activity
[2] = biological target: PIK3CA (human) (UniProt P42336); test: Assessment of PIK3CA Kinase Activity
[3] = biological target: PIK3CB (Human) (UniProt P42338); test: Assessment of PIK3CB Kinase Activity
[4] = biological target: PIK3CG (human) (UniProt P48736); test: Assessment of PIK3CG Kinase Activity
Sequence of PIK3CG (human) (P48736 whole entry, looked up): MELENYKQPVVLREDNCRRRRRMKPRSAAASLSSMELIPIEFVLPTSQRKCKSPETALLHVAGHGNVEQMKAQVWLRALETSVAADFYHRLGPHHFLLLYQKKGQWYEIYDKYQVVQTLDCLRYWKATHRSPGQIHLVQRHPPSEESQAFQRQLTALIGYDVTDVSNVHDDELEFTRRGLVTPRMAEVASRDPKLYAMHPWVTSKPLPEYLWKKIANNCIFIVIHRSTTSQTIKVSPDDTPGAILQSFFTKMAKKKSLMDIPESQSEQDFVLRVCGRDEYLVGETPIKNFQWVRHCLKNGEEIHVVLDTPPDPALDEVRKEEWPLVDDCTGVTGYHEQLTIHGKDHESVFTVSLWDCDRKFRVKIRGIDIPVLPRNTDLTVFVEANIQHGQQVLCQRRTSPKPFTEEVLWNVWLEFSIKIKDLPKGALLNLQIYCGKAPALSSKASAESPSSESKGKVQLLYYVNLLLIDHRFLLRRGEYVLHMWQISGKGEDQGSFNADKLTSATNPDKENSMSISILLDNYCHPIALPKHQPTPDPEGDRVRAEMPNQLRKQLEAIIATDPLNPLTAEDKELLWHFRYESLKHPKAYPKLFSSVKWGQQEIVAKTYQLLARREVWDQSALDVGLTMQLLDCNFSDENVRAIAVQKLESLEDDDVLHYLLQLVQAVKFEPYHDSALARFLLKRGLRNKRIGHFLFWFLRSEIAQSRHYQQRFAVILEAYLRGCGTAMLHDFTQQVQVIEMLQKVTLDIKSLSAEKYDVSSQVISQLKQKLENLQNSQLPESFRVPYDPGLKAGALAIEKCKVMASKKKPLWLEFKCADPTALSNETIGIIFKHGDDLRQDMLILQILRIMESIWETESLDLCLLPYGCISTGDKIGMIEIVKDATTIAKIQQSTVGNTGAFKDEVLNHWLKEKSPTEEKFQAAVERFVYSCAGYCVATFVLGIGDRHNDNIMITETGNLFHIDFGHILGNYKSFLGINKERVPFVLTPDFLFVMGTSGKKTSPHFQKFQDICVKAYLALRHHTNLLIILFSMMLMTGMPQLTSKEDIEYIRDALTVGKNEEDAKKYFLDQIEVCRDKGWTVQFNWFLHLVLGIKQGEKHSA

Sequence of PIK3CD (Human) (O00329 whole entry, looked up): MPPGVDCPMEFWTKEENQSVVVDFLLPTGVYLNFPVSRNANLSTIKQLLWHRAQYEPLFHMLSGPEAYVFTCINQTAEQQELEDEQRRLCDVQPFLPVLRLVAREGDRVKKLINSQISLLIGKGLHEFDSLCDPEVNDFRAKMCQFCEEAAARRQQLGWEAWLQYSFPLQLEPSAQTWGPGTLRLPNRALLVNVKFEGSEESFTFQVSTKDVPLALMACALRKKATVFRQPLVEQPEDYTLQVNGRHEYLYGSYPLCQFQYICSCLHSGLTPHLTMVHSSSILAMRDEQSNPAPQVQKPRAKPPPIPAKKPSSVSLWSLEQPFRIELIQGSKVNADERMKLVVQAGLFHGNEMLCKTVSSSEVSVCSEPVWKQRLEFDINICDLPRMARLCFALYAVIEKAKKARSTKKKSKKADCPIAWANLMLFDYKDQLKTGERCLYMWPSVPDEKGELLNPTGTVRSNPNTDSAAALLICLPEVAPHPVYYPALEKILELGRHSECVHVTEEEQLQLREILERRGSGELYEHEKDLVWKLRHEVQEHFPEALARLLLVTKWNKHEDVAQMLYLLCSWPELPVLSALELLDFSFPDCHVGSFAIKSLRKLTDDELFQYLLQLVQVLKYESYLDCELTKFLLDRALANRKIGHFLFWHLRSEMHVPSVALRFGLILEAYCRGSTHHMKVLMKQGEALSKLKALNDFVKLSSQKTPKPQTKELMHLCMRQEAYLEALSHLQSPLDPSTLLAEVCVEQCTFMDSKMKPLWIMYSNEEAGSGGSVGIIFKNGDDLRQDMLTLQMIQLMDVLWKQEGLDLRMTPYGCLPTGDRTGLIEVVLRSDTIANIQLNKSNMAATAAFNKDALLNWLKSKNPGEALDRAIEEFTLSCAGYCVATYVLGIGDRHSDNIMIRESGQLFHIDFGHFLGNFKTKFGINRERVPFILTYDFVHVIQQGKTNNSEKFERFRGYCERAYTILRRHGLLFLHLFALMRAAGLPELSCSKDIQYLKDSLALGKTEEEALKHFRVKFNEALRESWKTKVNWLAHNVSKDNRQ
Sequence of PIK3CB (Human) (P42338 whole entry, looked up): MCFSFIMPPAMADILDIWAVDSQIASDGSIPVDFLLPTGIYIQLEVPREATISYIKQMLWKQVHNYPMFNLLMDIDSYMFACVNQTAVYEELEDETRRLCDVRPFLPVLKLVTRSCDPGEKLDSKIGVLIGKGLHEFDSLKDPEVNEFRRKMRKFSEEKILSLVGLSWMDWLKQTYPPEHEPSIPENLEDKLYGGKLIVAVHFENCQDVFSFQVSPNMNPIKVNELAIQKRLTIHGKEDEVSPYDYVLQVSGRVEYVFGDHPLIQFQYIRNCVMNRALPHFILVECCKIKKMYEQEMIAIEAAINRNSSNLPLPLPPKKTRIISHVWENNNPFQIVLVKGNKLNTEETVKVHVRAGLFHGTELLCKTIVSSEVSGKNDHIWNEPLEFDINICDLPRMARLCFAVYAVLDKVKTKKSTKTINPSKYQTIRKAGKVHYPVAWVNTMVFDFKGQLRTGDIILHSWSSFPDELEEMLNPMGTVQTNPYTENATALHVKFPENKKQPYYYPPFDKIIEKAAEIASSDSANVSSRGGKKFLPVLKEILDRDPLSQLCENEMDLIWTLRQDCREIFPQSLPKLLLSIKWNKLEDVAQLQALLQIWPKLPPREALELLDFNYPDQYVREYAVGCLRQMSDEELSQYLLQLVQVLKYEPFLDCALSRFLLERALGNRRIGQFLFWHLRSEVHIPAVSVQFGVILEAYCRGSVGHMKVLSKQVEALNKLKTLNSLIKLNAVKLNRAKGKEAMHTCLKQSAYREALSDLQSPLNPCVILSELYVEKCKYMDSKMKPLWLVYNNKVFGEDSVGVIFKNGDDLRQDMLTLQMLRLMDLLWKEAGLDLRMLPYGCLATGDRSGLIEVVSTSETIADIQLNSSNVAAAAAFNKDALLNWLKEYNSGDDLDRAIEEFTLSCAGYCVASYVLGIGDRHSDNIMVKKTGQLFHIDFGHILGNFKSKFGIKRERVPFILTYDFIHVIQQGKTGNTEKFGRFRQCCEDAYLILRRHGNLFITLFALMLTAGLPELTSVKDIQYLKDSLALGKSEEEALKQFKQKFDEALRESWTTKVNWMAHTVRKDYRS
Sequence of PIK3CA (human) (P42336 whole entry, looked up): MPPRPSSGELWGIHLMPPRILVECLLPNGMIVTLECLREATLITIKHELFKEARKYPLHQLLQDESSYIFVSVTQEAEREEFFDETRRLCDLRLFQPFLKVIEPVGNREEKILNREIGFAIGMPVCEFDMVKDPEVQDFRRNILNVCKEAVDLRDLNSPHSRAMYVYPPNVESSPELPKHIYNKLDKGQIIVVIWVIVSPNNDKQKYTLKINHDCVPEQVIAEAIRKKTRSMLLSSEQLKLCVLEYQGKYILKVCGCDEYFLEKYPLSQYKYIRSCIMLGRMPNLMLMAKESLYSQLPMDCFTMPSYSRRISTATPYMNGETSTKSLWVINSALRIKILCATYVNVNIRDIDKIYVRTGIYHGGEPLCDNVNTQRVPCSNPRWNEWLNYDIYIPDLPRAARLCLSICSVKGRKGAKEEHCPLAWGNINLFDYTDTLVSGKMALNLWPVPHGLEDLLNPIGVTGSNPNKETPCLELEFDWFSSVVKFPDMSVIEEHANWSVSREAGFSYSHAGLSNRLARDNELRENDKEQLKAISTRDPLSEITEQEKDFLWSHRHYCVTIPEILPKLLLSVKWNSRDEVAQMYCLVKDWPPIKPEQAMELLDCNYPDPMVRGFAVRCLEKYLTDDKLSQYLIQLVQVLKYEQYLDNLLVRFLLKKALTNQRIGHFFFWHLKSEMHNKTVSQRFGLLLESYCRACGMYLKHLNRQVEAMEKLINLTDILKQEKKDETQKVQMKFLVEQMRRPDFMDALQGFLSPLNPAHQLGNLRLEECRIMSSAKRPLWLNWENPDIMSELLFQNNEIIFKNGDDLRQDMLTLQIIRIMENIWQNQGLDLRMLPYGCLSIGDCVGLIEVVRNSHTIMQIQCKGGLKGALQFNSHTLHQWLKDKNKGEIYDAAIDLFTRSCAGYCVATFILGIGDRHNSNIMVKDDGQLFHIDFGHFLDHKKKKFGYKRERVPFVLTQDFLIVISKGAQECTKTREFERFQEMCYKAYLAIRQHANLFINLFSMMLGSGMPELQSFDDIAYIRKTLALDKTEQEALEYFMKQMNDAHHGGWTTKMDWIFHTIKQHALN

Structure (SMILES)	IC50 [1] [µM]	IC50 [2] [nM]	IC50 [3] [nM]	IC50 [4] [µM]
C[C@H]1COCCN1c1nc(-c2ccc(NC(=O)NCCCO)cc2)nc2c1CN(C)C2	> 10	–	–	–
COCCCNC(=O)Nc1ccc(-c2nc3c(c(N4CCOC[C@@H]4C)n2)CN(C)C3)cc1	> 10	–	–	–
C[C@H]1COCCN1c1nc(-c2ccc(NC(=O)NCCN(C)C)cc2)nc2c1CN(C)C2	0.1 to 1	100 to 1000	100 to 1000	–
C[C@H]1COCCN1c1nc(-c2ccc(NC(=O)NC3CCC3)cc2)nc2c1CN(C)C2	> 10	–	–	–
COC(=O)N1Cc2nc(-c3ccc(NC(=O)NCCF)cc3F)nc(N3CCOCC3)c2C1	> 10	> 10000	> 10000	> 10

From the Kinase Knowledgebase extract (Sharma et al. 2016)
